Experimental data reported in patent US20050209278A1, “Piperidinyl- and piperazinyl-sulfonylmethyl hydroxamic acids and their use as protease inhibitors” (priority 2002, published 2005).
pKi: −log10 of the molar value. Counter-ions that a name gives are not always drawn. Like-named read-outs stand apart in the source and are kept apart here.

Experiments:
MMP-9 = target: T1, MMP-9 (Homo sapiens, UniProt P14780); test: In vitro MMP inhibition, Ki determination (fluorogenic substrate II); assay type: biochemical
T1 construct: made in house; host or cells: MMP-9-transfected HT1080 cells (spent media)
T1 sequence (P14780 107-707 limits assumed): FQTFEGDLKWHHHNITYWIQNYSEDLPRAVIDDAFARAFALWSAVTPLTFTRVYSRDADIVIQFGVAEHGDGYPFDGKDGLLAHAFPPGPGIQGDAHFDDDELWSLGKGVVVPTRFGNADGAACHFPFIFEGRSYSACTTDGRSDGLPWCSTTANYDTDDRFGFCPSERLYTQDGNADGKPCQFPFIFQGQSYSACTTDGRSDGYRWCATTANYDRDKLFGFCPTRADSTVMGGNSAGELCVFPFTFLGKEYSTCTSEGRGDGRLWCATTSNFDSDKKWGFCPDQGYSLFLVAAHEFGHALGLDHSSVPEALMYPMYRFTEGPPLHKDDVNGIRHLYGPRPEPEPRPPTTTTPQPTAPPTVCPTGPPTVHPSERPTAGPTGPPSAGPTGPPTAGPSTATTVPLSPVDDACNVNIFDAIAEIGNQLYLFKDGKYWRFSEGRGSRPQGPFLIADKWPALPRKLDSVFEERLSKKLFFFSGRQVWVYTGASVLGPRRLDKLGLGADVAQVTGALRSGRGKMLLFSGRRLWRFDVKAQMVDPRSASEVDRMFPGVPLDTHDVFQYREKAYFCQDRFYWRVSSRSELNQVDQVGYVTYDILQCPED
Experimental: (§1) Several hydroxamic acids and salts thereof were analyzed in in vitro assays to determine their ability to inhibit the MMP cleavage of peptide substrates. […] and IC50 constants were calculated from the assayed hydroxamic acid-MMP interactions.
(§2) Human recombinant MMP-1, MMP-2, MMP-9, MMP-13, and MMP-14 were used in this assay. All enzymes were prepared in Assignee's laboratories following usual laboratory procedures. Protocols for the preparation and use of these enzymes are available in the scientific literature. See, e.g., Enzyme Nomenclature (Academic Press, San Diego, Calif., 1992) (and the citations therein). See also, Freije et al., “Molecular cloning and expression of collagenase-3, a novel human matrix metalloproteinase produced by breast carcinomas,” J Biol. Chem., 269(24), 16766-16773 (1994).
The MMP-9 proenzyme was purified by gelatin Sepharose chromatography from spent media of MMP-9-transfected HT1080 cells provided by Dr. Howard Welgus of Washington University (St. Louis, Mo.).
(§3) All MMPs were activated using 4-aminophenylmercuric acetate (“APMA”, Sigma Chemical, St. Louis, Mo.) or trypsin. MMP-9 also was activated using human recombinant MMP-3 (purified in Assignee's laboratory following standard cloning and purification techniques).
(§4) Two fluorogenic, methoxycoumarin-containing polypeptide substrates were used in the MMP inhibition assays: [drawing 427] Here, “Dpa” is 3-(2,4-dinitrophenyl)-L-2,3-diaminopropionyl group, and “MCA” is 7-methoxycoumarin-4-yl acetyl. Substrate (I) was purchased from Baychem (Redwood City, Calif.), and substrate II was prepared Assignee's laboratory. Substrate I was used in the IC50 determination assays, while substrate II was used in the Ki determination assays. In the absence of MMP inhibitory activity, either substrate is cleaved at the Gly-Leu peptide bond. This cleavage separates the highly fluorogenic peptide from the 2,4-dinitrophenyl quencher, thus resulting in increase of fluorescent intensity.
(§5) The stock solutions of the assayed hydroxamic acids (or salts thereof) were prepared in 1% dimethyl sulfoxide (DMSO). These stock solutions were diluted in Buffer A (100 mM Tris-HCl, 100 mM NaCl, 10 mM CaCl2, 0.05% polyoxyethylene 23 lauryl ether, pH 7.5) to obtain solutions with different hydroxamic acid concentrations, i.e., assay solutions with different concentrations of the assayed MMP inhibitory compound. The experiment controls contained the same amount of Buffer A/DMSO as the assayed sample, but contained no hydroxamic acid (or salt thereof).
The assays from which the Ki determinations were made were performed as follows. The assayed hydroxamic acid samples were incubated in separate wells of untreated white polystyrene plates (Nunc Nalgene International, Rochester, N.Y.), and analyzed on a Tecan SpectraFlour Plus plate reader. The excitation wavelength was 330 nm, and the emission wavelength—420 nm. All samples (assayed hydroxamic acids and controls) were incubated in separate plate wells at room temperature for 1 hr in the presence of 4 μM of MMP substrate (II). In the absence of MMP inhibitory activity, substrate II was cleaved at the Gly-Leu bond resulting in an increase of relative fluorescence. Inhibition was observed as a reduced rate of this increase in relative fluorescence. The various hydroxamic acids were analyzed using a single low enzyme concentration with a single substrate concentration fixed at or below the Km. This protocol is a modification of method by Knight et al., FEBS Lett., 296(3), 263-266 (1992). Apparent inhibitory constants were determined by non-linear regression of reaction velocity as a function of inhibitor and enzyme concentration using Morrison's equation, as described by Kuzmic, Anal. Biochem. 286, 45-50 (2000). Modifications were made in the non-linear regression method to allow a common control reaction rate and effective enzyme concentration to be shared between all dose-response relationships on a given assay plate. […]

MMP-13 = target: T2, MMP-13 (Homo sapiens, UniProt P45452); test: as above; assay type: biochemical
T2 construct: made in house; host or cells: baculovirus / insect cells
Experimental: as §1, §2
The MMP-13 was obtained as a proenzyme from a full-length cDNA clone using baculovirus, as described by V. A. Luckow, “Insect Cell Expression Technology,” Protein Engineering: Principles and Practice, pp. 183-218 (edited by J. L. Cleland et al., Wiley-Liss, Inc., 1996). The expressed proenzyme was first purified over a heparin agarose column, and then over a chelating zinc chloride column. The proenzyme was then activated by APMA for use in the assay. […] See also, O'Reilly et al, Baculovirus Expression Vectors: A Laboratory Manual (W.H. Freeman and Co., New York, N.Y., 1992). See also, King et al., The Baculovirus Expression System: A Laboratory Guide (Chapman & Hall, London, England, 1992).
as §3, §4, §5
The assays from which the Ki determinations were made were performed as follows. The assayed hydroxamic acid samples were incubated in separate wells of untreated white polystyrene plates (Nunc Nalgene International, Rochester, N.Y.), and analyzed on a Tecan SpectraFlour Plus plate reader. The excitation wavelength was 330 nm, and the emission wavelength—420 nm. All samples (assayed hydroxamic acids and controls) were incubated in separate plate wells at room temperature for 1 hr in the presence of 4 μM of MMP substrate (II). In the absence of MMP inhibitory activity, substrate II was cleaved at the Gly-Leu bond resulting in an increase of relative fluorescence. Inhibition was observed as a reduced rate of this increase in relative fluorescence. The various hydroxamic acids were analyzed using a single low enzyme concentration with a single substrate concentration fixed at or below the Km.

[1] = human recombinant enzyme, 4 μM substrate II, room temperature, 1 hr
[2] = human recombinant enzyme, 4 μM substrate II, room temperature, 1 hr, read-out: MMP-13 Ki
[3] = value not in parenthesis, read-out: MMP-13 Ki

| Compound | pKi (MMP-9; [1]) | pKi (MMP-13; [2]) | pKi (MMP-9; value not in parenthesis) | pKi (MMP-13; [3]) | pKi (MMP-13; MMP-13 Ki, value not in parenthesis) |
| --- | --- | --- | --- | --- | --- |
| CCCCCc1ccc(C2CCN(S(=O)(=O)C3(C(=O)NO)CCN(CCOC)CC3)CC2)cc1 [Example 15, N-hydroxy-1-(2-methoxyethyl)-4-{[4-(4-pentylpheyl)piperidin-1-yl]sulfonyl}piperidine-4-carboxamide Hydrochloride] | 9.89 | 9.64 |  |  |  |
| CCCCc1ccc(N2CCN(S(=O)(=O)C3(C(=O)NO)CCN(CCOC)CC3)CC2)cc1 [Example 5, 4-{[4-(4-butylphenyl)piperazin-1-yl]sulfonyl}-N-hydroxy-1-(2-methoxyethyl)piperidine-4-carboxamide Dihydrochloride] | 9.97 | 9.28 |  |  |  |
| O=C(NO)C1(S(=O)(=O)N2CCN(c3ccc(OCCCC(F)(F)F)cc3)CC2)CCOCC1 [Example 7, N-hydroxy-4-({4-[4-(4,4,4-trifluorobutoxy)phenyl]piperazin-1-yl}sulfonyl)tetrahydro-2H-pyran-4-carboxamide Hydrochloride] | 8.13 | 9.77 |  |  |  |
| CCCCOc1ccc(N2CCN(S(=O)(=O)C3(C(=O)NO)CCN(CCOC)CC3)CC2)cc1F [Example 11, 4-[[4-(4-butoxy-3-fluorophenyl)-1-piperazinyl]sulfonyl]-N-hydroxy-1-(2-methoxyethyl)-4-piperidinecarboxamide, Dihydrochloride] | 8.57 | 9.17 |  |  |  |
| O=C(NO)C1(S(=O)(=O)N2CCN(c3ccc(OCC(F)(F)F)cc3)CC2)CCOCC1 [Example 2, N-hydroxy-4-({4-[4-(2,2,2-trifluoroethoxy)phenyl]piperazin-1-yl}sulfonyl)tetrahydro-2H-pyran-4-carboxamide Hydrochloride] | 8.89 | 9.11 |  |  |  |
| COc1ccc(-c2cnc(N3CCN(S(=O)(=O)C4(C(=O)NO)CCOCC4)CC3)nc2)cc1 [Example 8, N-hydroxy-4-({4-[5-(4-methoxyphenyl)pyrimidin-2-yl]piperazin-1-yl}sulfonyl)tetrahydro-2H-pyran-4-carboxamide Hydrochloride] | 8.78 | 9.96 |  |  |  |
| CCCCCc1ccc(N2CCN(S(=O)(=O)C3(C(=O)NO)CCN(CCOC)CC3)CC2)cc1F [Example 13, 4-{[4-(3-fluoro-4-pentylphenyl)piperazin-1-yl]sulfonyl}-N-hydroxy-1-(2-methoxyethyl)piperidine-4-carboxamide Dihydrochloride] | 9.15 | 9.21 |  |  |  |
| COCCN1CCC(C(=O)NO)(S(=O)(=O)N2CCN(c3ccc(OCCCC(F)(F)F)cc3F)CC2)CC1 [Example 102] |  |  | 7.74 | 9.72 |  |
| CCCCCCCCCc1cnc(N2CCN(S(=O)(=O)C3(C(=O)NO)CCOCC3)CC2)nc1 [Example 111] |  |  | 7.51 | 8.59 |  |
| O=C(NO)C1(S(=O)(=O)N2CCN(c3ccc(OCC4CC4)c(F)c3)CC2)CCN(C2CC2)CC1 [Example 10, 1-cyclopropyl-4-[[4-[4-(cyclopropylmethoxy)-3-fluorophenyl]-1-piperazinyl]sulfonyl]-N-hydroxy-4-piperidinecarboxamide, dihydrochloride] | 9.01 | 8.41 |  |  |  |
| O=C(NO)C1(S(=O)(=O)N2CCN(c3ccc(COCC(F)(F)C(F)(F)C(F)(F)C(F)F)cc3)CC2)CCOCC1 [Example 68] |  |  | 6.68 |  | 8.73 |
| COc1ccc(N2CCN(S(=O)(=O)C3(C(=O)NO)CCOCC3)CC2)nc1 [Example 109] |  |  | 6.35 | 6.33 |  |
| CCCCCCCCC1CCN(S(=O)(=O)C2(C(=O)NO)CCOCC2)CC1 [Example 26, 4-(4-octyl-piperidine-1-sulfonyl)-tetrahydro-pyran-4-carboxylic Acid Hydroxyamide] | 9.48 | 9.29 |  |  |  |
| O=C(NO)C1(S(=O)(=O)N2CCN(c3ncc(Br)cn3)CC2)CCOCC1 [Example 104] |  |  | 7.92 | 8.45 |  |

Continued, in another order:

| pKi (MMP-9; [1]) | pKi (MMP-13; [2]) | pKi (MMP-9; value not in parenthesis) | pKi (MMP-13; [3]) | Compound | pKi (MMP-13; MMP-13 Ki, value not in parenthesis) |
| --- | --- | --- | --- | --- | --- |
|  |  | 9.28 | 9.64 | CC(C)CCc1ccc(N2CCN(S(=O)(=O)C3(C(=O)NO)CCOCC3)CC2)nc1 [Example 133] |  |
|  |  | 8.87 | 9.10 | COCCN1CCC(C(=O)NO)(S(=O)(=O)N2CCN(c3ccc(OCC(F)(F)F)cc3)CC2)CC1 [Example 119] |  |
|  |  | 8.92 | 9.52 | CCCCOc1ccc(N2CCN(S(=O)(=O)C3(C(=O)NO)CCN(c4ccc(OCCOC)nn4)CC3)CC2)cc1 [Example 129] |  |
|  |  | 9.00 | 9.60 | CCCCOc1ccc(N2CCN(S(=O)(=O)C3(C(=O)NO)CCN(C(=O)OCCF)CC3)CC2)cc1 [Example 113] |  |
|  |  | 9.37 | 9.92 | CCCCOc1ccc(N2CCN(S(=O)(=O)C3(C(=O)NO)CCN(C(=O)N4CCOCC4)CC3)CC2)cc1 [Example 124] |  |
|  |  | 7.31 | 8.92 | CC(C)(C)N1CCC(C(=O)NO)(S(=O)(=O)N2CCN(c3ccc(OCCCC(F)(F)F)cc3F)CC2)CC1 [Example 116] |  |
|  |  | 7.55 | 9.40 | O=C1c2ccccc2C(=O)N1CCCCc1ccc(N2CCN(S(=O)(=O)C3(C(=O)NO)CCOCC3)CC2)nc1 [Example 132] |  |
|  |  | 7.50 | 7.95 | CCCCOc1ccc(N2CCN(S(=O)(=O)C3(C(=O)NO)CCN(c4nc5ccccc5o4)CC3)CC2)cc1 [Example 150] |  |
|  |  | 8.67 | 9.30 | CCCCOc1ccc(N2CCN(S(=O)(=O)C3(C(=O)NO)CCN(c4ccc(OC)nc4)CC3)CC2)cc1 [Example 142] |  |
|  |  | 7.54 | 8.15 | CCCCOc1ccc(N2CCN(S(=O)(=O)C3(C(=O)NO)CCN(C(=O)c4cc5ccccc5s4)CC3)CC2)cc1 [Example 143] |  |
|  |  | 8.64 | 8.03 | CCCCc1ccc(N2CCN(S(=O)(=O)C3(C(=O)NO)CCN(c4ccc(C)cc4)CC3)CC2)cc1 [Example 146] |  |
|  |  | 8.27 | 9.82 | CCCCOc1ccc(N2CCN(S(=O)(=O)C3(C(=O)NO)CCN(C(=O)OCCOC)CC3)CC2)cc1 [Example 141] |  |
|  |  | 8.72 | 9.68 | CC(C)CCOc1ccc(N2CCN(S(=O)(=O)C3(C(=O)NO)CCN(C4CC4)CC3)CC2)cc1 [Example 128] |  |
|  |  | 8.13 | 8.69 | CCCCOc1ccc(N2CCN(S(=O)(=O)C3(C(=O)NO)CCN(c4cc(C)ccn4)CC3)CC2)cc1 [Example 139] |  |
|  |  | 7.56 |  | O=C(NO)C1(S(=O)(=O)N2CCN(c3ccc(OCCCC(F)(F)F)cc3F)CC2)CCOCC1 [Example 117] |  |
|  |  | 7.63 |  | CCCCOc1ccc(N2CCN(S(=O)(=O)C3(C(=O)NO)CCN(c4nccc(C(F)(F)F)n4)CC3)CC2)cc1 [Example 130] |  |
